≈ marks a conversion by molar mass, not a printed value.
tested on: Candida albicans; assay: Antifungal activity against Candida albicans at 1000 ug/mL after 72 hrs by agar diffusion assay; type: functional; conditions: read-out: IZ

| SMILES | zone of inhibition at 1000 µg/mL [mm] |
| --- | --- |
| Cc1cccc2cc(-c3nc4ccccc4c4nc5c6nsnc6ccc5n34)c(=O)oc12 | 30 |
| O=c1oc2ccc([N+](=O)[O-])cc2cc1-c1nc2ccccc2c2nc3c4nsnc4ccc3n12 | 38 |
| CC(=O)N1CCN(c2ccc(OCC3COC(Cn4ccnc4)(c4ccc(Cl)cc4Cl)O3)cc2)CC1 (centres undefined) [KETOCONAZOLE] | 40 |

tested on: Streptococcus pyogenes; assay: Antibacterial activity against Streptococcus pyogenes by liquid dilution method; type: functional; conditions: not given

| MIC [mg/L] | SMILES |
| --- | --- |
| 45 (≈ 103 µM) | Cc1cccc2cc(-c3nc4ccccc4c4nc5c6nsnc6ccc5n34)c(=O)oc12 |
| 30 (≈ 64.3 µM) | O=c1oc2ccc([N+](=O)[O-])cc2cc1-c1nc2ccccc2c2nc3c4nsnc4ccc3n12 |

| SMILES | MIC [mg/L] |
| --- | --- |
| CC1(C)S[C@@H]2[C@H](NC(=O)[C@H](N)c3ccccc3)C(=O)N2[C@H]1C(=O)O [AMPICILLIN] | 25 (≈ 71.5 µM) |

tested on: Staphylococcus aureus; assay: Antibacterial activity against Staphylococcus aureus at 1000 ug/mL after 72 hrs by agar diffusion assay; type: functional; conditions: read-out: IZ

| SMILES | zone of inhibition at 1000 µg/mL [mm] |
| --- | --- |
| Cc1cccc2cc(-c3nc4ccccc4c4nc5c6nsnc6ccc5n34)c(=O)oc12 | 29 |
| O=c1oc2ccc([N+](=O)[O-])cc2cc1-c1nc2ccccc2c2nc3c4nsnc4ccc3n12 | 27 |
| CC1(C)S[C@@H]2[C@H](NC(=O)[C@H](N)c3ccccc3)C(=O)N2[C@H]1C(=O)O [AMPICILLIN] | 48 |

tested on: Salmonella typhimurium; assay: Antibacterial activity against Salmonella Typhimurium at 1000 ug/mL after 72 hrs by agar diffusion assay; type: functional, Salmonella enterica subsp. enterica serovar Typhimurium; conditions: Salmonella enterica, read-out: IZ

| SMILES | zone of inhibition at 1000 µg/mL [mm] |
| --- | --- |
| Cc1cccc2cc(-c3nc4ccccc4c4nc5c6nsnc6ccc5n34)c(=O)oc12 | 29 |
| O=c1oc2ccc([N+](=O)[O-])cc2cc1-c1nc2ccccc2c2nc3c4nsnc4ccc3n12 | 29 |
| CC1(C)S[C@@H]2[C@H](NC(=O)[C@H](N)c3ccccc3)C(=O)N2[C@H]1C(=O)O [AMPICILLIN] | 45 |

tested on: Escherichia coli; assay: Antibacterial activity against Escherichia coli by liquid dilution method; type: functional; conditions: not given

| MIC [mg/L] | SMILES |
| --- | --- |
| 45 (≈ 103 µM) | Cc1cccc2cc(-c3nc4ccccc4c4nc5c6nsnc6ccc5n34)c(=O)oc12 |
| 35 (≈ 75 µM) | O=c1oc2ccc([N+](=O)[O-])cc2cc1-c1nc2ccccc2c2nc3c4nsnc4ccc3n12 |

| SMILES | MIC [mg/L] |
| --- | --- |
| CC1(C)S[C@@H]2[C@H](NC(=O)[C@H](N)c3ccccc3)C(=O)N2[C@H]1C(=O)O [AMPICILLIN] | 15 (≈ 42.9 µM) |

tested on: Streptococcus pyogenes; assay: Antibacterial activity against Streptococcus pyogenes at 1000 ug/mL after 72 hrs by agar diffusion assay; type: functional; conditions: read-out: IZ

| SMILES | zone of inhibition at 1000 µg/mL [mm] |
| --- | --- |
| Cc1cccc2cc(-c3nc4ccccc4c4nc5c6nsnc6ccc5n34)c(=O)oc12 | 24 |
| O=c1oc2ccc([N+](=O)[O-])cc2cc1-c1nc2ccccc2c2nc3c4nsnc4ccc3n12 | 29 |
| CC1(C)S[C@@H]2[C@H](NC(=O)[C@H](N)c3ccccc3)C(=O)N2[C@H]1C(=O)O [AMPICILLIN] | 35 |

tested on: Escherichia coli; assay: Antibacterial activity against Escherichia coli at 1000 ug/mL after 72 hrs by agar diffusion assay; type: functional; conditions: read-out: IZ

| SMILES | zone of inhibition at 1000 µg/mL [mm] |
| --- | --- |
| Cc1cccc2cc(-c3nc4ccccc4c4nc5c6nsnc6ccc5n34)c(=O)oc12 | 20 |
| O=c1oc2ccc([N+](=O)[O-])cc2cc1-c1nc2ccccc2c2nc3c4nsnc4ccc3n12 | 31 |
| CC1(C)S[C@@H]2[C@H](NC(=O)[C@H](N)c3ccccc3)C(=O)N2[C@H]1C(=O)O [AMPICILLIN] | 40 |

tested on: Aspergillus niger; assay: Antifungal activity against Aspergillus niger at 1000 ug/mL after 72 hrs by agar diffusion assay; type: functional; conditions: read-out: IZ

| SMILES | zone of inhibition at 1000 µg/mL [mm] |
| --- | --- |
| Cc1cccc2cc(-c3nc4ccccc4c4nc5c6nsnc6ccc5n34)c(=O)oc12 | 28 |
| O=c1oc2ccc([N+](=O)[O-])cc2cc1-c1nc2ccccc2c2nc3c4nsnc4ccc3n12 | 36 |
| CC(=O)N1CCN(c2ccc(OCC3COC(Cn4ccnc4)(c4ccc(Cl)cc4Cl)O3)cc2)CC1 (centres undefined) [KETOCONAZOLE] | 45 |

tested on: Salmonella typhimurium; assay: Antibacterial activity against Salmonella Typhimurium by liquid dilution method; type: functional, Salmonella enterica subsp. enterica serovar Typhimurium; conditions: Salmonella enterica

| MIC [mg/L] | SMILES |
| --- | --- |
| 30 (≈ 68.9 µM) | Cc1cccc2cc(-c3nc4ccccc4c4nc5c6nsnc6ccc5n34)c(=O)oc12 |
| 35 (≈ 75 µM) | O=c1oc2ccc([N+](=O)[O-])cc2cc1-c1nc2ccccc2c2nc3c4nsnc4ccc3n12 |

| SMILES | MIC [mg/L] |
| --- | --- |
| CC1(C)S[C@@H]2[C@H](NC(=O)[C@H](N)c3ccccc3)C(=O)N2[C@H]1C(=O)O [AMPICILLIN] | 10 (≈ 28.6 µM) |

tested on: Klebsiella pneumoniae; assay: Antibacterial activity against Klebsiella pneumoniae at 1000 ug/mL after 72 hrs by agar diffusion assay; type: functional; conditions: read-out: IZ

| SMILES | zone of inhibition at 1000 µg/mL [mm] |
| --- | --- |
| Cc1cccc2cc(-c3nc4ccccc4c4nc5c6nsnc6ccc5n34)c(=O)oc12 | 32 |
| O=c1oc2ccc([N+](=O)[O-])cc2cc1-c1nc2ccccc2c2nc3c4nsnc4ccc3n12 | 27 |
| CC1(C)S[C@@H]2[C@H](NC(=O)[C@H](N)c3ccccc3)C(=O)N2[C@H]1C(=O)O [AMPICILLIN] | 45 |

tested on: Bacillus subtilis; assay: Antibacterial activity against Bacillus subtilis at 1000 ug/mL after 72 hrs by agar diffusion assay; type: functional; conditions: read-out: IZ

| SMILES | zone of inhibition at 1000 µg/mL [mm] |
| --- | --- |
| Cc1cccc2cc(-c3nc4ccccc4c4nc5c6nsnc6ccc5n34)c(=O)oc12 | 26 |
| O=c1oc2ccc([N+](=O)[O-])cc2cc1-c1nc2ccccc2c2nc3c4nsnc4ccc3n12 | 30 |
| CC1(C)S[C@@H]2[C@H](NC(=O)[C@H](N)c3ccccc3)C(=O)N2[C@H]1C(=O)O [AMPICILLIN] | 39 |

tested on: Aspergillus flavus; assay: Antifungal activity against Aspergillus flavus at 1000 ug/mL after 72 hrs by agar diffusion assay; type: functional; conditions: read-out: IZ

| SMILES | zone of inhibition at 1000 µg/mL [mm] |
| --- | --- |
| Cc1cccc2cc(-c3nc4ccccc4c4nc5c6nsnc6ccc5n34)c(=O)oc12 | 33 |
| O=c1oc2ccc([N+](=O)[O-])cc2cc1-c1nc2ccccc2c2nc3c4nsnc4ccc3n12 | 44 |
| CC(=O)N1CCN(c2ccc(OCC3COC(Cn4ccnc4)(c4ccc(Cl)cc4Cl)O3)cc2)CC1 (centres undefined) [KETOCONAZOLE] | 43 |

tested on: Klebsiella pneumoniae; assay: Antibacterial activity against Klebsiella pneumoniae by liquid dilution method; type: functional; conditions: not given

| MIC [mg/L] | SMILES |
| --- | --- |
| 25 (≈ 57.4 µM) | Cc1cccc2cc(-c3nc4ccccc4c4nc5c6nsnc6ccc5n34)c(=O)oc12 |
| 45 (≈ 96.5 µM) | O=c1oc2ccc([N+](=O)[O-])cc2cc1-c1nc2ccccc2c2nc3c4nsnc4ccc3n12 |

| SMILES | MIC [mg/L] |
| --- | --- |
| CC1(C)S[C@@H]2[C@H](NC(=O)[C@H](N)c3ccccc3)C(=O)N2[C@H]1C(=O)O [AMPICILLIN] | 10 (≈ 28.6 µM) |

tested on: Bacillus subtilis; assay: Antibacterial activity against Bacillus subtilis by liquid dilution method; type: functional; conditions: not given

| MIC [mg/L] | SMILES |
| --- | --- |
| 50 (≈ 115 µM) | Cc1cccc2cc(-c3nc4ccccc4c4nc5c6nsnc6ccc5n34)c(=O)oc12 |
| 45 (≈ 96.5 µM) | O=c1oc2ccc([N+](=O)[O-])cc2cc1-c1nc2ccccc2c2nc3c4nsnc4ccc3n12 |

| SMILES | MIC [mg/L] |
| --- | --- |
| CC1(C)S[C@@H]2[C@H](NC(=O)[C@H](N)c3ccccc3)C(=O)N2[C@H]1C(=O)O [AMPICILLIN] | 20 (≈ 57.2 µM) |

tested on: Aspergillus flavus; assay: Antifungal activity against Aspergillus flavus by liquid dilution method; type: functional; conditions: not given

| MIC [mg/L] | SMILES |
| --- | --- |
| 40 (≈ 91.9 µM) | Cc1cccc2cc(-c3nc4ccccc4c4nc5c6nsnc6ccc5n34)c(=O)oc12 |
| 25 (≈ 53.6 µM) | O=c1oc2ccc([N+](=O)[O-])cc2cc1-c1nc2ccccc2c2nc3c4nsnc4ccc3n12 |

| SMILES | MIC [mg/L] |
| --- | --- |
| CC(=O)N1CCN(c2ccc(OCC3COC(Cn4ccnc4)(c4ccc(Cl)cc4Cl)O3)cc2)CC1 (centres undefined) [KETOCONAZOLE] | 15 (≈ 28.2 µM) |

tested on: Aspergillus niger; assay: Antifungal activity against Aspergillus niger by liquid dilution method; type: functional; conditions: not given

| MIC [mg/L] | SMILES |
| --- | --- |
| 50 (≈ 115 µM) | Cc1cccc2cc(-c3nc4ccccc4c4nc5c6nsnc6ccc5n34)c(=O)oc12 |
| 35 (≈ 75 µM) | O=c1oc2ccc([N+](=O)[O-])cc2cc1-c1nc2ccccc2c2nc3c4nsnc4ccc3n12 |

| SMILES | MIC [mg/L] |
| --- | --- |
| CC(=O)N1CCN(c2ccc(OCC3COC(Cn4ccnc4)(c4ccc(Cl)cc4Cl)O3)cc2)CC1 (centres undefined) [KETOCONAZOLE] | 15 (≈ 28.2 µM) |

tested on: Staphylococcus aureus; assay: Antibacterial activity against Staphylococcus aureus by liquid dilution method; type: functional; conditions: not given

| MIC [mg/L] | SMILES |
| --- | --- |
| 40 (≈ 91.9 µM) | Cc1cccc2cc(-c3nc4ccccc4c4nc5c6nsnc6ccc5n34)c(=O)oc12 |
| 35 (≈ 75 µM) | O=c1oc2ccc([N+](=O)[O-])cc2cc1-c1nc2ccccc2c2nc3c4nsnc4ccc3n12 |

| SMILES | MIC [mg/L] |
| --- | --- |
| CC1(C)S[C@@H]2[C@H](NC(=O)[C@H](N)c3ccccc3)C(=O)N2[C@H]1C(=O)O [AMPICILLIN] | 10 (≈ 28.6 µM) |

tested on: Candida albicans; assay: Antifungal activity against Candida albicans by liquid dilution method; type: functional; conditions: not given

| MIC [mg/L] | SMILES |
| --- | --- |
| 35 (≈ 80.4 µM) | Cc1cccc2cc(-c3nc4ccccc4c4nc5c6nsnc6ccc5n34)c(=O)oc12 |
| 30 (≈ 64.3 µM) | O=c1oc2ccc([N+](=O)[O-])cc2cc1-c1nc2ccccc2c2nc3c4nsnc4ccc3n12 |

| SMILES | MIC [mg/L] |
| --- | --- |
| CC(=O)N1CCN(c2ccc(OCC3COC(Cn4ccnc4)(c4ccc(Cl)cc4Cl)O3)cc2)CC1 (centres undefined) [KETOCONAZOLE] | 25 (≈ 47 µM) |
